# Test results taken from patent publication US20260240203A1, “COMPOSITIONS CONTAINING GAMMA-AMINOBUTYRIC ACID AND METHODS FOR IMPROVING COGNITIVE FUNCTIONS, MOOD, AND ALERTNESS” (THE COCA-COLA COMPANY, priority 2023, published 2026).
# Key:
# healthy adults [1] = settings: p-value vs placebo; compositive level; single beverage dose; b330
# healthy adults [2] = settings: vs placebo; compositive level; single beverage dose
smiles,measurement,setting,value
"Cn1c(=O)c2c(ncn2C)n(C)c1=O [Caffeine, caffeine]","improve the speed of performance significantly comparing to placebo (p), as printed in the attention paragraph",healthy adults [1],0.002
same,accuracy of performance,healthy adults [2],"numerically trends to improve the accuracy of performance, although no significance observed"
